Assay results as given in US5045566A, “Novel imidate insecticides” (ICI Americas Inc., priority 1989, dated 1991).

Legend:
Type in all cases: in vivo
[1] = system: Housefly [Musca domestica]; test: Housefly contact mortality in dishes (HF), 48 hours; conditions: μg of test compound per 25 female flies
In short: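 Residual contact test: acetone dilution, 0.01% peanut oil spreader, solvent evaporated; 25 ♀ flies (1-2 d old) per cage; sugar-water plug; 48 h mortality read. LC50 in μg/25 female flies, from dose-mortality curves; top dose 100 μg/25 flies.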

[2] = system: Black Bean Aphid [Aphis fabae (Scop.)]; test: Black bean aphid spray test on nasturtium (BBA), 48 hours; conditions: percent of test compound in sprayed solution
In short: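 LC50, given as percent test compound in the sprayed liquid, was calculated from dosage-mortality curves using concentrations from 0.05% downward. Sprays in 50:50 acetone-water went to runoff on ~5 cm nasturtiums carrying 25-50 aphids of mixed ages, one day after infestation. Deaths were counted 48 h later under greenhouse conditions.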

[3] = system: Maize weevil [Sitophilus zeamais (Motschulsky)]; test: Maize weevil on dipped corn seeds (MW), 48 hours; conditions: percent in solution, adult weevils
Method: The compounds in Tables 1 and 2 above were tested for insecticidal activity using the following testing procedures. LC50 values, based on the results of these tests and calculated according to dosage-mortality curves, are expressed in Table 3.
Maize weevil [Sitophilus zeamais (Motschulsky)]:
Test compounds were diluted in a 50:50 acetone:water solution. Four corn seeds [Zea mays (L.)] which had been immersed in test solutions for 2-3 seconds and allowed to dry were placed in containers together with 10 adult weevils. The containers were covered and kept at a temperature of about 25° C. Mortality was recorded after 48 hours. Test concentrations ranged from 0.01% down to that at which 50% mortality occurred. The LC50 values are expressed below in Table 3 under the heading "MW" in terms of percent of the test compound in solution.

[4] = system: Cabbage Looper [Trichoplusia ni (Hubner)]; test: Cabbage looper leaf dip (CL), 3-5 days; conditions: percent in solution, second-instar larvae
In short: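 Leaf dip, squash cotyledons, 50-50 acetone-water, top dose 0.1% and lower. 5 second-instar larvae/dish, moist filter paper, high-humidity chamber. Mortality at 3-5 d; LC50 (% in solution) from dosage-mortality curves.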

[5] = system: Tobacco Budworm [Heliothis virescens (Fabricius)] eggs; test: Tobacco budworm eggs (TBW-E); conditions: percent in solution; 2-day old eggs
In short: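 LC50 values (percent test compound in the dip solution) were calculated from dosage-mortality curves. Egg patches, 2 days old, were dipped in acetone solutions at concentrations from 0.1% downward and held at 78° F on rearing medium until control larvae hatched and fed.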

| SMILES | LC50 HF [1] [µg] | LC50 BBA [2] [%] | LC50 MW [3] [%] | LC50 CL [4] [%] | LC50 TBW E (eggs) [5] [%] |
| --- | --- | --- | --- | --- | --- |
| Clc1ccc(N=C(OCc2cccc(Oc3ccccc3)c2)C2CCC2)cc1 [Compound 8] | 50 | 0.03 | > 0.01 | 0.01 | > 0.1 |
| CC(C)(C)C(=Nc1cccc(C(F)(F)F)c1)OCc1cccc(Oc2ccccc2)c1 [Compound 88] | > 100 | > 0.05 | > 0.01 | 0.018 | > 0.1 |
| CCc1ccc(N=C(OCc2cccc(Oc3ccccc3)c2)C(C)(C)C)cc1 [Compound 163] | > 100 | > 0.05 | > 0.01 | 0.004 | > 0.1 |
| CC(C)C(=Nc1ccc(F)c(Cl)c1)OCc1cccc(Oc2cccc(Cl)c2)c1 [Compound 203] | 43 | 0.006 | > 0.01 | 0.0025 | 0.06 |
| CC(C)C(=Nc1ccc(F)c(I)c1)OCc1ccc(F)c(Oc2ccccc2)c1 [Compound 334] | 9 | 0.0006 | > 0.01 | 0.0007 | 0.013 |
| CC(C)c1ccc(N=C(OCc2cccc(Oc3ccccc3)c2)C2CCC2)cc1 [Compound 339] | > 100 | 0.03 | > 0.01 | 0.017 | > 0.1 |
| CC(C)C(=Nc1ccc(Cl)c(C(F)(F)F)c1)OCc1ccc(F)c(Oc2ccc(F)cc2)c1 [Compound 340] | 34 | 0.001 | 0.0069 | 0.00037 | 0.04 |
| CC(C)C(=Nc1cccc(Cl)c1)OCc1ccc(F)c(Oc2ccc(F)cc2)c1 [Compound 341] | 4 | 0.0005 | > 0.01 | 0.0005 | 0.023 |
| CC(C)C(=Nc1cccc(F)c1)OCc1ccc(F)c(Oc2ccc(F)cc2)c1 [Compound 342] | 4.1 | 0.0006 | > 0.01 | 0.0008 | 0.04 |
| Cc1ccc(Oc2cccc(COC(=Nc3ccc(C(C)(C)C)cc3)C(C)C)c2)cc1 [Compound 344] | > 100 | 0.008 | > 0.01 | 0.024 | > 0.1 |
| COc1ccc(Oc2cccc(COC(=Nc3ccc(C(C)(C)C)cc3)C(C)C)c2)cc1 [Compound 345] | > 100 | 0.006 | > 0.01 | 0.018 | > 0.1 |
| CCOc1ccc(N=C(OCc2cccc(Oc3ccccc3)c2)C(C)C)cc1Cl [Compound 368] | < 100 | 0.001 | > 0.01 | 0.002 | 0.04 |
| CCOc1ccc(N=C(OCc2cccc(Oc3ccccc3)c2)C(C)C)cc1 [Compound 371] | < 100 | 0.0004 | > 0.01 | 0.0022 | > 0.1 |
| CCOc1ccc(N=C(OCc2ccc(F)c(Oc3ccc(Cl)cc3)c2)C(C)C)cc1 [Compound 372] | > 100 | 0.001 | > 0.01 | > 0.1 | > 0.1 |
| CCOc1ccc(N=C(OCc2ccc(F)c(Oc3ccccc3)c2)C(C)C)cc1 [Compound 373] | < 100 | 0.001 | > 0.01 | > 0.1 | > 0.1 |
| CC(C)C(=Nc1ccc(I)c(Cl)c1)OCc1cccc(Oc2ccc(F)cc2)c1 [Compound 374] | < 100 | 0.0008 | > 0.01 | 0.00058 | 0.02 |
| CC(C)C(=Nc1ccc(F)c(Br)c1)OCc1ccc(F)c(Oc2ccc(Cl)cc2)c1 [Compound 379] | < 100 | 0.0006 | > 0.01 | 0.00075 | 0.02 |
| CC(C)C(=Nc1ccc(Br)c(Br)c1)OCc1ccc(F)c(Oc2ccc(F)cc2)c1 [Compound 383] | < 100 | 0.0006 | > 0.01 | 0.00029 | 0.038 |
| CC(C)C(=Nc1ccc(Br)c(Br)c1)OCc1ccc(F)c(Oc2ccccc2)c1 [Compound 384] | < 100 | 0.0008 | > 0.01 | > 0.1 | 0.025 |
| CC(C)C(=Nc1ccc(I)c(Cl)c1)OCc1ccc(F)c(Oc2ccc(F)cc2)c1 [Compound 385] | < 100 | > 0.05 | > 0.01 | > 0.1 | > 0.1 |
| CC(C)C(=Nc1cccc(Br)c1)OCc1ccc(F)c(Oc2ccc(Cl)cc2)c1 [Compound 386] | < 100 | 0.002 | > 0.01 | 0.0012 | > 0.1 |
| CC(C)C(=Nc1ccc(Cl)c(C(F)(F)F)c1)OCc1ccc(F)c(Oc2ccccc2)c1 [Compound 388] | < 100 | 0.0006 | > 0.01 | 0.0012 | > 0.1 |
| CC(C)C(=Nc1cccc(I)c1)OCc1cccc(Oc2ccc(Cl)cc2)c1 [Compound 389] | < 100 | 0.003 | > 0.01 | 0.00069 | > 0.1 |
| CC(C)C(=Nc1cccc(Cl)c1)OCc1ccc(F)c(Oc2ccc(Cl)cc2)c1 [Compound 390] | < 100 | 0.0006 | > 0.01 | 0.0021 | 0.045 |
| CC(C)C(=Nc1ccc(C#N)cc1)OCc1ccc(F)c(Oc2ccc(Cl)cc2)c1 [Compound 392] | < 100 | 0.001 | > 0.01 | 0.00034 | 0.039 |
| CC(C)C(=Nc1ccc(C#N)cc1)OCc1cccc(Oc2ccc(Cl)cc2)c1 [Compound 393] | < 100 | > 0.05 | > 0.01 | 0.00037 | > 0.1 |
| CC(C)C(=Nc1ccc(C#N)cc1)OCc1ccc(F)c(Oc2ccc(F)cc2)c1 [Compound 394] | < 100 | 0.002 | > 0.01 | 0.00025 | 0.05 |
| CC(C)C(=Nc1cccc(OC(F)(F)F)c1)OCc1ccc(F)c(Oc2ccc(Cl)cc2)c1 [Compound 436] | < 100 | 0.0006 | > 0.01 | – | < 0.1 |
